This note sets out measurements from patent US10030047B2 (Hoffmann-La Roche Inc., priority 2015, dated 2018).

Bounds are passed on as bounds.

The assay relates to A. baumannii strain ATCC17978. The assay can be described thus: 50% growth inhibitory concentration (IC50) determination, Iso-Sensitest broth. The assay is classed as cell-based. Particulars: Acinetobacter baumannii; A. baumannii ATCC17978; Iso-Sensitest medium; OD 600 nm over 16 h; read-out: IC50 ATCC17978. The essentials:
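Twofold dilution series (e.g. 50 to 0.097 μM final) in Iso-Sensitest broth, inoculum ~5×10^(5) CFU/ml, incubated at 35±2° C. OD600 read every 20 min over 16 h; IC50 and IC90 calculated during logarithmic growth.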
For the compound `CN1C(=O)[C@H](CCCCN)NC(=O)[C@H](CCCN)NCc2cccnc2Sc2c(Cl)ccc(-c3ccc(C4CCNCC4)cc3)c2CNC(=O)[C@@H]1Cc1c[nH]c2ccccc12` [Example 250, (11S,14S,17S)-14-(4-Amino-butyl)-1-(3-amino-propyl)-25-chloro-17-(1H-indol-3-ylmethyl)-16-methyl-22-(4-piperidin-4-yl-phenyl)-2-thia-4,10,13,16,19-pentaaza-tricyclo[19.4.0.0*3,8*]pentacosa-1(25),3(8),4,6,21,23-hexaene-12,15,18-trione], the IC50 (usually the concentration needed to halve the response being measured) is under 100 nM.

As to `CNCCCC[C@@H]1NC(=O)[C@H](CCCN)NCc2cccnc2Sc2c(Cl)cc(Cl)cc2CNC(=O)[C@H](Cc2c[nH]c3ccccc23)N(C)C1=O` [Example 251, (11S,14S,17S)-11-(3-Amino-propyl)-23,25-dichloro-17-(1H-indol-3-ylmethyl)-16-methyl-14-(4-methylamino-butyl)-2-thia-4,10,13,16,19-pentaaza-tricyclo[19.4.0.0*3,8*]pentacosa-1(25),3(8),4,6,21,23-hexaene-12,15,18-trione], the 50% inhibitory concentration (IC50) is under 100 nM.

Turning to `CN1C(=O)[C@H](CCCCN)NC(=O)[C@H](CCCO)NCc2cccnc2Sc2c(Cl)cc(Cl)cc2CNC(=O)[C@@H]1Cc1c[nH]c2ccccc12` [Example 252, (11S,14S,17S)-14-(4-Amino-butyl)-23,25-dichloro-11-(3-hydroxy-propyl)-17-(1H-indol-3-ylmethyl)-16-methyl-2-thia-4,10,13,16,19-pentaaza-tricyclo[19.4.0.0*3,8*]pentacosa-1(25),3(8),4,6,21,23-hexaene-12,15,18-trione], the IC50 was determined as 500 nM.

For `CCCC[C@@H]1NC(=O)[C@H](CCCN)NCc2cccnc2Sc2c(Cl)cc(Cl)cc2CNC(=O)[C@H](Cc2c[nH]c3ccccc23)N(C)C1=O` [Example 253, (11S,14S,17S)-11-(3-Amino-propyl)-14-butyl-23,25-dichloro-17-(1H-indol-3-ylmethyl)-16-methyl-2-thia-4,10,13,16,19-pentaaza-tricyclo[19.4.0.0*3,8*]pentacosa-1(25),3(8),4,6,21,23-hexaene-12,15,18-trione], the IC50 is 4200 nM.
